SMILES strings stand for the structures. Read-outs that look alike come from different tables or passages of the source.

The test system of assay [1] is Raphanus sativus L. cv. Cherry Belle cotyledons. In words: Radish cotyledon bioassay (expansion growth and chlorophyll accumulation). Type of assay: in vivo. Details: Chlorophyll a + b: unit not given here. The settings on record: for Change in fresh weight: continuous illumination, 25° C., ten cotyledons; for activity at 20 µg/mL: Raphanus sativus, read-out: Change in fresh weight, % of control; for cytokinin-like activities (summary of the examples) / ethylene-like activities (summary of the examples): summary statement in the description; for cotyledon expansion (in words): Table 2, 72 h incubation. The text has this: Radish cotyledon bioassay: This bioassay using Raphanus sativus L. cv. Cherry Belle cotyledons was developed by Letham, DS (Physiologia Plantarum 25, 391–396, 1971, incorporated by reference in its entirety) to evaluate the efficacy of cytokinin on cell enlargement. Success using this assay is not restricted to radish. […] In addition to their effect on cell division, cytokinin plays a major role in driving cell enlargement. Compounds in this class of phytohormone and with cytokinin activity also help maintain photosynthetic activity and productivity and abolish proteolytic activity. In cotyledon leaf systems, a requirement for cytokinin is critical and removal of the roots (i.e. the presumed source of cytokinin) renders the cotyledon leaves unable to expand. Exposure to cytokinin (0.02–22 μg/ml) results in a dramatic increase in fresh weight of cotyledons within 72 hours. This effect is not observed with either gibberellin or auxin and is usually delayed or inhibited by abscisic acid and the ethylene precursor, 1-aminocyclopropane-1-carboxylic acid (ACC). […] Thus, the mode of action of cytokinin in this system appears to be similar to that of indole-3-acetic acid (IAA) in auxin-induced stem elongation, a process that depends on an increase in the mechanical extensibility of the cell wall. However, cytokinin antagonizes IAA-mediated cell elongation and appears to do so by promoting ethylene production. Furthermore, cytokinin-induced cell expansion is not usually accompanied by proton (H^+) extrusion and no change in plasma membrane ATPase activity is evident.
Seeds of Raphanus sativus L. cv. Cherry-Belle were germinated in darkness at 24° C. for 36 h in Petri dishes containing filter paper wetted with distilled water. The smaller of the two cotyledons was excised, the fresh weight determined, and 10 cotyledons placed adaxial side down on filter paper in Petri dishes containing 10 ml of KPO4 buffer (2 mM, pH 6.0) and the compounds to be tested at 20 mg/l. […] Chlorophyll content was determined after extraction of tissue into 80% ethanol (containing butylated hydroxytoluene (BHT) 10 mg/l) using the equations Chl a=(13.95A663)−(6.88A647) and Chl b=(24.96A652)−(7.32A663) as described by Lichtenthaler, HK, Methods in Enzymology 148: 350–382, 1987, incorporated by reference in its entirety. FIG. 6 illustrates the difference in cotyledon size in response to the cytokinin kinetin.

The subject of a further assay is maize roots. The assay can be described thus: Corn root bioassay (ethylene production by maize roots). The settings on record: for activity at 20 µg/mL: Zea mays, read-out: Ethylene, % of control; for activity at 20 µg/mL / Ethylene / Ethylene, % of control: 20 mg/l. Type of assay: in vivo, Zea mays L. As to the method:
Corn root bioassay: It is well established that roots of Zea mays produce ethylene when exposed to a variety of stresses (for review, see Morgan, PW and Drew, MC, Physiologia Plantarum 100: 620–630, 1997). Mechanical impedance and hypoxia both induce ethylene formation and usually as early as 1 hour after exposure. In response to ethylene treatment, maize roots show decreased expansion and elongation, a high incidence of cell death and the formation of aerenchyma tissue—particularly evident when roots are exposed to hypoxic conditions (Drew, MC et al., Trends in Plant Science 5: 123–127, 2000, Morgan and Drew 1997).
Seeds of Zea mays L. were sown in flats of Perlite, covered with a layer of vermiculite, and irrigated daily with water and/or 1/10 Hoagland solution. Seedlings were cultivated under continuous illumination at 22–25° C. and used when 7 d old. Seedlings were removed from the Perlite and washed under running tap water. Seedlings were allowed to acclimate in water and/or 1/10 Hoagland solution for several hours before being transferred to Falcon tubes containing the test compounds (all 20 mg/l) prepared in 1/10 Hoagland solution. […] Roots were then transferred to gas-tight tubes each containing 200 μl of water. The tubes were sealed and incubated at 26° C. for 1–2 h in darkness before gas samples were drawn from the incubation tubes using a 1 ml syringe and assayed by gas chromatography (Romera, FJ et al. (1999) Annals of Botany 83, 51–55).

The mark [2] stands for this setting: Table 3, 48 h incubation, 20 mg/l.
[3] abbreviates: experiment 1, 72 h illumination, roots incubated 2 h in gas tight tubes.
The mark [4] stands for this setting: experiment 2, 36 h illumination, roots incubated 2 h in darkness at 24° C.

Take `CCCCCCCCCCCCCCCC(=O)NCCO` [NAE-16:0, N-Hexadecanoyl-2-aminoethanol]: in assay [1] (Experiment 2, 20 mg/l, 48 h), the “Chlorophyll (mg/g FW) a + b” value turned out to be 1.44 mg/g FW, the “Chlorophyll (μg/cotyledon) a + b” value is on record as 24.18 μg/cotyledon, the Chlorophyll a/b worked out at 1.7 and the “Change in fresh weight” value was 12.42 ± 2.26 mg. Moreover, in assay [1] (Experiment 2, 20 mg/l, 48 h), the activity at 20 µg/mL was 153%. Also, in assay [1] (setting [2]), the “chlorophyll content per unit mass (in words)” value was “decreased chlorophyll content per unit mass”, the “chlorophyll per cotyledon (in words)” value is given as “increased chlorophyll per cotyledon” and the “hormone-like activity with respect to expansion growth (in words)” value is “cytokinin-like activity”. The “cytokinin-like activities (summary of the examples)” value in assay [1] was “cytokinin-like activities”.
With `O=CNCCO` [NAE-1, N-Formyl-2-aminoethanol], in the assay with maize roots (experiment 1, 72 h), the activity at 20 µg/mL came to 175%. In addition, the activity at 20 µg/mL in the assay on maize roots (experiment 2, 36 h) amounted to 157%. Besides, the Ethylene in the assay on maize roots (setting [3]) is listed as 1034.4 ± 255.3 nL/g FW/h. This molecule also yielded an Ethylene in the assay on maize roots (setting [4]) of 45.32 ± 18.98 pmol/g FW/h. The “increase of ethylene production (in words)” value in the assay on maize roots (other experiments using a different treatment time) is “effective”. Also, in assay [1] (Experiment 1, 20 mg/l, 72 h), the “Chlorophyll a + b” value worked out at 0.59, the Chlorophyll a/b is reported as 1.7, the “Change in fresh weight” value was 7.61 ± 3.42 mg and the activity at 20 µg/mL amounted to 54%. In assay [1] (Experiment 2, 20 mg/l, 48 h), the “Chlorophyll (mg/g FW) a + b” value was found to be 1.62 mg/g FW, the “Chlorophyll (μg/cotyledon) a + b” value is given as 21.19 μg/cotyledon, the Chlorophyll a/b came to 2.0 and the “Change in fresh weight” value turned out to be 8.68 ± 1.70 mg. Also, in assay [1] (Experiment 2, 20 mg/l, 48 h), the activity at 20 µg/mL was found to be 107%. The “cotyledon expansion (in words)” value in assay [1] (20 mg/l) is reported as “significantly slowed cotyledon expansion”. Further, in assay [1], the “ethylene-like activities (summary of the examples)” value is listed as “ethylene-like activities”.
With `CCCCCC(=O)NCCO` [NAE-6:0, N-Hexanoly-2-aminoethanol], in the assay with maize roots (Experiment 1, 72 h), the “Ethylene, % of control” value turned out to be 210%. In the assay with maize roots (setting [3]), this molecule came in with an Ethylene of 1244.0 ± 406.2 nL/g FW/h. For the same molecule, the “Ethylene, % of control” value with maize roots (experiment 2, 36 h) turned out to be 141%. For the same molecule, the Ethylene in the assay on maize roots (setting [4]) is given as 40.58 ± 11.85 pmol/g FW/h. In the assay with maize roots (first experiment (Table 4)), the “relative efficacy on ethylene formation (in words)” value was “strongest effect”. In assay [1] (Experiment 1, 20 mg/l, 72 h), the “Change in fresh weight, % of control” value was 57%; the “Chlorophyll a + b” value came to 0.65; the Chlorophyll a/b came out at 1.6; the “Change in fresh weight” value was 8.04 ± 3.86 mg. In assay [1] (Experiment 2, 20 mg/l, 48 h), the “Change in fresh weight, % of control” value came out at 87%; the “Chlorophyll (mg/g FW) a + b” value is on record as 1.73 mg/g FW; the “Chlorophyll (μg/cotyledon) a + b” value is 19.80 μg/cotyledon; the Chlorophyll a/b stood at 2.0. Also, in assay [1] (Experiment 2, 20 mg/l, 48 h), the “Change in fresh weight” value amounted to 7.02 ± 0.98 mg. Further, the “cotyledon expansion (in words)” value in assay [1] (20 mg/l) is “significantly slowed cotyledon expansion”. Further, in assay [1] (setting [2]), the “hormone-like activity with respect to expansion growth (in words)” value is “ethylene-like activity”. Further, the “ethylene-like activities (summary of the examples)” value in assay [1] is on record as “ethylene-like activities”.
For the molecule `O=C(NCCO)c1ccccc1` [NAE-Bz, N-Benzoyl-2-aminoethanol], in assay [1] (Experiment 2, 20 mg/l, 48 h), the “Chlorophyll (mg/g FW) a + b” value is reported as 1.77 mg/g FW, the “Chlorophyll (μg/cotyledon) a + b” value is 20.87 μg/cotyledon, the Chlorophyll a/b is 1.8 and the “Change in fresh weight” value amounted to 7.36 ± 1.00 mg. Further, the activity at 20 µg/mL in assay [1] (Experiment 2, 20 mg/l, 48 h) stood at 91%.
Consider `CCCCC(CC)C(=O)NCCO` (stereo not shown) [NAE-EH, N-(2-Ethylhexanoyl)-2-aminoethanol], for which, in assay [1] (Experiment 2, 20 mg/l, 48 h), the “Chlorophyll (mg/g FW) a + b” value came to 1.63 mg/g FW, the “Chlorophyll (μg/cotyledon) a + b” value is 19.73 μg/cotyledon, the Chlorophyll a/b is 1.8 and the “Change in fresh weight” value worked out at 7.69 ± 1.16 mg. The activity at 20 µg/mL in assay [1] (Experiment 2, 20 mg/l, 48 h) worked out at 95%.
With `CCCCCCCCCCCC(=O)NCCO` [NAE-12:0, N-Dodecanoyl-2-aminoethanol], in assay [1] (Experiment 2, 20 mg/l, 48 h), the “Chlorophyll (mg/g FW) a + b” value is 1.79 mg/g FW, the “Chlorophyll (μg/cotyledon) a + b” value was found to be 23.16 μg/cotyledon, the Chlorophyll a/b was determined as 2.0 and the “Change in fresh weight” value is 8.53 ± 1.59 mg. Moreover, in assay [1] (48 h), the activity at 20 µg/mL was determined as 105%. Further, the “cytokinin-like activities (summary of the examples)” value in assay [1] was “cytokinin-like activities”.

The values are drawn from patent US7205261B2, “Use of certain N-acylethanolamines to achieve ethylene- and cytokinin-like effects in plants and fungi” (Nutra-Park, Inc., priority 2002, dated 2007).
